Experimental findings from PubChem BioAssay AID743276 (Broad Institute, 2014) are described below.

Inconclusive results are not listed. Activity calls are given as the source filed them.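 How the source made its calls: active means compounds whose fitted cell loss curve, in every repeat run, reached half effect below twice the top dose; inconclusive means repeat runs disagree, or runs show weak or poorly fitted drops; inactive means every repeat run called inactive.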

A short description of test [1]: CAPAN-1 cell growth inhibition, dose response, imaging, dry powder, set 3 (AID 743276). Particulars: CAPAN-1 cell number, Hoechst imaging, 14 days; at 50 µM (top of the series).
The test system of test [2] is CAPAN-1 cell number, Hoechst imaging, 14 days. Described as above.

With `CCN(CC)CCCN(Cc1cc2cc3c(cc2[nH]c1=O)OCO3)C(=S)NCCCN(C)C`, in test [1], the activity change, negative = fewer cells was -1.27% (inactive).

The term AC50 denotes the midpoint of the concentration-response curve, whichever way the signal moves. Regarding `COc1ccccc1Nc1nc(NCCCO)c2ccccc2n1`, the AC50 in test [2] was 31.1 µM.

As for `c1ccc(-c2cc(N3CCC(N4CCCC4)CC3)n3nccc3n2)cc1`, the AC50 in test [2] was 46.1 µM.

Take `O=c1c2c(-c3ccccc3)csc2nc2c3ccccc3c(NCCN3CCOCC3)nn12`: the activity change, negative = fewer cells in test [1] is -15.7% (inactive).

As to `CN(C)CCCNC(=S)N(CCN(C)C)Cc1cc2cc3c(cc2[nH]c1=O)OCCO3`, the activity change, negative = fewer cells in test [1] is -2.03% (inactive).

Take `CN1CCN(CCCNC(=O)c2cc3c(-c4ccc(Cl)cc4)nn(C)c3s2)CC1`: in test [2], the AC50 is 10.5 µM.

Regarding `Cc1ccc2nc(-c3ccc(NC(=S)NC4CC(C)(C)NC(C)(C)C4)cc3)sc2c1`, in test [2], the AC50 is 12.1 µM.

As for `CCCN1CCN(CCCNC(=S)Nc2ccc3nc(N4CCN(CC)CC4)cc(C)c3c2)CC1`, the AC50 in test [2] is 24.7 µM.

In the case of `CCN(CC)CCNC(=S)Nc1ccc2nc(N3CCN(CC)CC3)cc(C)c2c1`, the AC50 in test [2] is 13.8 µM.

Consider `Cc1cc(C)n(-c2nc(NCCN(C)C)c3c4c(sc3n2)CCCC4)n1`, for which, in test [2], the AC50 is 15.4 µM.

In the case of `Cc1ccc2sc(N(CCCN(C)C)C(=O)c3ccc(S(=O)(=O)N(C)C4CCCCC4)cc3)nc2c1C`, the AC50 in test [2] is 24 µM.

As to `CN(C)CCCN(C(=O)c1nc2ccccc2s1)c1nc2ccc(F)cc2s1`, the AC50 in test [2] is 17 µM.

Consider `CCCN(CCC)CCCNC(=S)Nc1ccc2nc(N3CCN(CC)CC3)cc(C)c2c1`, for which the AC50 in test [2] was 22.8 µM.

Consider `CCN1CCN(CCCNC(=O)C2CCN(c3nnc(-n4c(C)ccc4C)s3)CC2)CC1`, for which the AC50 in test [2] is 20.5 µM.

For the molecule `CCCCN(CC)CCNC(=O)CCC(=O)Nc1ccc2nc(N3CCN(C)CC3)cc(C)c2c1`, the AC50 in test [2] was 25.1 µM.

`Cc1c(C(=O)Nc2ccc(S(=O)(=O)N(C)C3CCN(C)CC3)cc2)oc2c(Cl)cccc12`: in test [2], the AC50 is 11.2 µM.

In the case of `COc1ccccc1Nc1nc(NCCO)c2ccccc2n1`, the AC50 in test [2] is 24.6 µM.

Take `COc1ccc2oc(C(=O)c3ccccc3)c(NC(=O)CN3CCN(C)CC3)c2c1`: the AC50 in test [2] is 13.5 µM.

Take `C=C1Nc2cc(-c3ccc(Cl)cc3)nn2C(NCCN(C)C)=C1C`: the AC50 in test [2] was 8.39 µM.

On to `Cc1cc(N2CCN(C)CC2)nc2ccc(NC(=S)NCCCN3CCN(C)CC3)cc12`, for which, in test [2], the AC50 is 43.7 µM.

On to `Cc1cc(C)c2c(c1)c1nnc(SCCN3CCCCC3)nc1n2C`, for which the AC50 in test [2] was 42.3 µM.

`Cc1ccc(C(=O)c2oc3ccc(Cl)cc3c2NC(=O)CN2CCN(C)CC2)cc1`: the AC50 in test [2] was 9.78 µM.

`OCCNc1nc(Nc2ccccc2F)nc2ccccc12`: in test [2], the AC50 was 32 µM.

As to `CN(C)CCCN(C(=O)c1ccc(C(=O)c2ccccc2)cc1)c1nc2cc3c(cc2s1)OCO3`, the AC50 in test [2] is 12.7 µM.

In the case of `CN(C)CCCNC(=S)NCC(c1ccc(Cl)cc1Cl)c1c[nH]c2ccccc12` (stereo not drawn), the AC50 in test [2] was 27.4 µM.

On to `CCN1CCN(C(=S)Nc2ccc3nc(N4CCN(C)CC4)cc(C)c3c2)CC1`, for which the AC50 in test [2] is 10.7 µM.

Take `CCN(CC)CCN(C(=O)C1=COCCO1)c1nc2c(OC)ccc(OC)c2s1`: the AC50 in test [2] is 47.5 µM.

Turning to `Cc1cc(C)c2sc(N(CCCN(C)C)C(=O)CN3C(=O)c4ccccc4C3=O)nc2c1`, the AC50 in test [2] was 22.2 µM.

Take `CCN1CCc2c(sc(NC(=O)c3ccc(OC)cc3OC)c2C(N)=O)C1`: the AC50 in test [2] was 32.7 µM.

For `CCCCN(CC)CCNC(=O)c1cc2c(-c3ccc(Cl)cc3)nn(C)c2s1`, the AC50 in test [2] was 3.57 µM.

Consider `Cc1ccc2sc(N(CCCN(C)C)C(=O)c3ccc(S(=O)(=O)N(C)Cc4ccccc4)cc3)nc2c1C`, for which, in test [2], the AC50 was 9.25 µM.

As for `COc1ccc(C2NCCc3c2[nH]c2ccccc32)cc1COc1ccc(F)cc1` (stereo not drawn), the AC50 in test [2] was 18.7 µM.

Regarding `COc1ccc(-c2oc3ncnc(NCCCN4CCOCC4)c3c2-c2ccc(OC)cc2)cc1`, the AC50 in test [2] was 43.8 µM.

Consider `CCCNc1nc(Cl)nc(NCc2cccnc2)n1`, for which the activity change, negative = fewer cells in test [1] was -7.79% (inactive).

Take `CC1(C)CC(NC(=O)c2ccc(Cl)c(S(=O)(=O)N(Cc3ccccc3)c3ccccc3)c2)CC(C)(C)N1`: in test [2], the AC50 was 12.8 µM.

In the case of `CCCCN(CC)CCCNC(=S)Nc1ccc2nc(N3CCN(C)CC3)cc(C)c2c1`, in test [2], the AC50 is 37.8 µM.

`Cn1nc(-c2ccc(Cl)cc2)c2cc(C(=O)NCCCN3CCCC3)sc21`: the AC50 in test [2] is 3.72 µM.

Consider `CCN1CCN(c2cc(C)c3cc(NC(=O)c4ccccn4)ccc3n2)CC1`, for which the AC50 in test [2] was 35.6 µM.
